Data: patent publication US5955431A, “Mast cell protease peptide inhibitors” (Brigham and Women's Hospital, Inc., priority 1998, dated 1999)
Where a SMILES comes first, the peptide text is derived from it. The star is where a group is joined. pNA = O=[N+]([O-])c1ccc(N*)cc1

T1: recombinant mMCP-6-FLAG (Mus musculus, UniProt P21845)
T1 construct: endogenous pro-peptide followed by EK-susceptible peptide (Asp-Asp-Asp-Asp-Lys) (N, cleaved yes); made in house; host or cells: baculovirus; Spodoptera frugiperda 9 for virus, Trichoplusia ni High Five insect cells for expression
T1 sequence (P21845 32-276): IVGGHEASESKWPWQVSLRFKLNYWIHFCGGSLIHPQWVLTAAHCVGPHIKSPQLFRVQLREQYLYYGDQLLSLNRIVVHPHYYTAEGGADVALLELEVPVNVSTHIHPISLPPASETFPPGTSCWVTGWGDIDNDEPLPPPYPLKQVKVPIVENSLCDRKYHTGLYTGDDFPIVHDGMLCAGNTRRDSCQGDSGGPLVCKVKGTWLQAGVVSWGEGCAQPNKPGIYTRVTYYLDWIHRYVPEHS


Legend:
recombinant mMCP-6-FLAG = target: T1, recombinant mMCP-6-FLAG; test: spectrophotometric cleavage of trypsin-susceptible p-nitroanilide substrates by EK-activated mMCP-6-FLAG; assay type: biochemical
Description: Purified pro-EK-mMCP-6-FLAG (~100 μg in 100 μl) was separately mixed with 100 μl of a pH 5.2 buffer consisting of 50 mM sodium acetate and 5 mM calcium chloride. One μl of a solution containing 550 U of calf intestine EK (Biozyme) was added to each, and the mixture was incubated at 37° C. generally for 3 h to allow EK to activate the zymogen in the absence of heparin. The spectrophotometric method of Svendsen and coworkers (Throm. Res. 1972, 1:267-278) was used to determine whether or not mMCP-6-FLAG is enzymatically active. Generally, 1-μl samples of each activation reaction were placed in 1 ml of a pH 7.4 buffer containing 25 mM sodium phosphate, 1 mM EDTA, and 50 μg of tosyl-Gly-Pro-Lys-p-nitroanilide. The change in optical density at 405 nm was then determined after a 3-min incubation at room temperature. The ability of recombinant mMCP-6-FLAG to cleave the trypsin-susceptible substrates tosyl-Gly-Pro-Arg-p-nitroanilide, benzoyl-Ile-Glu-Gly-Arg-p-nitroanilide, benzoyl-Pro-Phe-Arg-p-nitroanilide, and acetyl-Ile-Glu-Ala-Arg-p-nitroanilide were also evaluated.

recombinant mMCP-7-FLAG = target: T2, recombinant mMCP-7-FLAG (Mus musculus, UniProt Q02844); test: cleavage of p-nitroanilide substrate by mMCP-7-FLAG; assay type: biochemical; settings: in vitro
T2 construct: made in house; host or cells: insect cells (described in earlier work of the same group)
T2 sequence (Q02844 29-273): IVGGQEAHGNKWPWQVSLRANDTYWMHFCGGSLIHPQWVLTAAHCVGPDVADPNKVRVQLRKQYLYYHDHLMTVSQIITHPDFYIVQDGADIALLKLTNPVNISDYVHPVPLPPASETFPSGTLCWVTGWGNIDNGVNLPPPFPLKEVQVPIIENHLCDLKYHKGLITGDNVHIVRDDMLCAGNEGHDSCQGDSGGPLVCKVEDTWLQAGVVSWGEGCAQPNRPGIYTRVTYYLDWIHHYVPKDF

[1] = system: Swiss albino mouse skin-derived 3T3 fibroblasts; test: adhesion and growth of fibroblasts on fibronectin-coated culture dishes; assay type: cell-based; settings: for adhesion/shape of fibroblasts on fibronectin-coated dishes: 15 min at 37° C.
Description: However, these cells will become less adhesive and divide in vitro when they are trypsin treated. To determine if mMCP-6-FLAG could specifically alter the growth and/or adhesion of these cells, the fibroblasts were allowed to attach to replicate fibronectin-coated culture dishes and then were incubated for 15 min at 37° C. with buffer alone or buffer containing either pro-EK-mMCP-6-FLAG, mMCP-6-FLAG, mMCP-7-FLAG, or trypsin. […] SDS-PAGE/immunoblot analysis of the supernatants from the result cultures confirmed that fibronectin was degraded in the mMCP-6-FLAG-treated cultures but not in the pro-EK-mMCP-6-FLAG or mMCP-7-FLAG treated cultures.

mouse fibronectin = test: in vitro degradation of fibronectin by recombinant tryptases; assay type: biochemical
Description: In Vitro Degradation of Fibronectin by Recombinant mMCP-6-FLAG--Five μg of purified mouse fibronectin (Alexis) was suspended in 1 mM EDTA and 25 mM sodium phosphate, pH 7.4, containing 0.01 U EK, 0.5 μg recombinant pro-EK-mMCP-6-FLAG, 0.5 μg recombinant mMCP-6-FLAG (activated with 0.01 U EK), or 0.5 μg recombinant mMCP-7FLAG (activated with 0.01 U EK). After an incubated for various lengths of times, the resulting digests were subjected to SDS-PAGE. In one experiment, the N-terminal amino acid sequences; of the major fibronectin fragments in the mMCP-FLAG digest were determined.

neutrophils = test: emigration of neutrophils into the peritoneal cavity after injection of tryptase; assay type: in vivo, BALB/c mice
Source text: mMCP-6-FLAG-Induced Emigration of Neutrophils Into the Peritoneal Cavity and mMCP-6-Induced Growth of Fibroblasts and their Adhesion to Fibronectin--This experiment is discussed below.
mMCP-6-Induced Emigration of Neutrophils Into the Peritoneal Cavity of BALB/c Mice--The mast cells that reside in the peritoneal cavity of BALB/c mice express mMCP-6 but not mMCP-7 (Stevens et al., Proc. Natl. Acad. Sci. USA 1994, 91:128-132). […] Thus, the direct or indirect chemotaxis activity of mMCP-6 is relatively neutrophil specific. It also appears that tryptase treatment results in a relatively persistent recruitment of neutrophils into the peritoneal cavity.

Row | cleavage of substrate by mMCP-6-FLAG (recombinant mMCP-6-FLAG; in the presence or absence of heparin) | cleavage of substrate by mMCP-7-FLAG compared with mMCP-6-FLAG (recombinant mMCP-7-FLAG) | Molecule | contact inhibition of treated fibroblasts [1] | rate of proliferation of treated fibroblasts [1] | adhesion/shape of fibroblasts on fibronectin-coated dishes [1] | cleavage of fibronectin in vitro (mouse fibronectin; SDS-PAGE of digests) | neutrophil chemotaxis activity in the in vivo assay (neutrophils; enzymatically active tryptase, peritoneal cavity) | pH of optimal enzymatic activity (recombinant mMCP-6-FLAG; recombinant, EK-activated) | fibroblasts remaining attached to the culture dish ([1]; 40 min incubation) | degradation of fibronectin in culture supernatants ([1]; SDS-PAGE/immunoblot analysis) | number of fibronectin fragments obtained (mouse fibronectin; 60-min incubation, tryptase bound to heparin) | persistence of induced neutrophilia (neutrophils; kinetic experiments, peritoneal cavity) | influx of neutrophils in the peritoneal cavity (neutrophils; six to 36 h after intraperitoneal administration)
1 | does not effectively cleave | much better than mMCP-6-FLAG | CC[C@H](C)[C@H](NC(C)=O)C(=O)N[C@@H](CCC(=O)O)C(=O)N[C@@H](C)C(=O)N[C@@H](CCCN=C(N)N)C(=O)Nc1ccc([N+](=O)[O-])cc1 [acetyl-Ile-Glu-Ala-Arg-p-nitroanilide] (Ac-IEAR-pNA) | – | – | – | – | – | – | – | – | – | – | –
2 | – | – | mMCP-7-FLAG: EK-activated recombinant mouse mast cell protease 7 (tryptase) with FLAG peptide | do not lose their contact inhibition | do not increase their rate of proliferation | continued to adhere | not | very little, if any | – | – | – | – | – | –
3 | – | – | mMCP-6-FLAG: EK-activated recombinant mouse mast cell protease 6 (tryptase) with the FLAG peptide attached to its C-terminus (protein, UniProt P21845 32-276, looked up, C-terminal FLAG tag) Tryptase beta-2: IVGGHEASESKWPWQVSLRFKLNYWIHFCGGSLIHPQWVLTAAHCVGPHIKSPQLFRVQLREQYLYYGDQLLSLNRIVVHPHYYTAEGGADVALLELEVPVNVSTHIHPISLPPASETFPPGTSCWVTGWGDIDNDEPLPPPYPLKQVKVPIVENSLCDRKYHTGLYTGDDFPIVHDGMLCAGNTRRDSCQGDSGGPLVCKVKGTWLQAGVVSWGEGCAQPNKPGIYTRVTYYLDWIHRYVPEHS | – | – | rapidly induced the cultured fibroblasts to round up | – | – | ~7.4 | very few fibroblasts remained attached | degraded | 2 fragments | at least 3 days | pronounced influx of neutrophils
